For this test, the target named is T1, CDK2/CycE (Homo sapiens, UniProt P24941).
T1 construct: GST; purchased ProQinase GmbH (Freiburg, Germany); host or cells: insect cells (Sf9)
The test is described as follows: CDK2/CycE kinase assay (TR-FRET). In kind it is biochemical. As to conditions: avg, read-out: CDK2 avg (IC50 [mol/l]). The source says: CDK2/CycE -inhibitory activity of compounds of the present invention was quantified employing the CDK2/CycE TR-FRET assay as described in the following paragraphs.
Recombinant fusion proteins of GST and human CDK2 and of GST and human CycE, expressed in insect cells (Sf9) and purified by Glutathion-Sepharose affinity chromatography, were purchased from ProQinase GmbH (Freiburg, Germany). As substrate for the kinase reaction biotinylated peptide biotin-Ttds-YISPLKSPYKISEG (C-terminus in amid form) was used which can be purchased e.g. form the company JERINI peptide technologies (Berlin, Germany).
For the assay 50 nl of a 100fold concentrated solution of the test compound in DMSO was pipetted into a black low volume 384we11 microtiter plate (Greiner Bio-One, Frickenhausen, Germany), 2 μl of a solution of CDK2/CycE in aqueous assay buffer [50 mM Tris/HCl pH 8.0, 10 mM MgCl2, 1.0 mM dithiothreitol, 0.1 mM sodium ortho-vanadate, 0.01% (v/v) Nonidet-P40 (Sigma)] were added and the mixture was incubated for 15 min at 22° C. to allow pre-binding of the test compounds to the enzyme before the start of the kinase reaction. Then the kinase reaction was started by the addition of 3 μl of a solution of adenosine-tri-phosphate (ATP, 16.7 μM=>final conc. in the 5 μl assay volume is 10 μM) and substrate (1.25 μM=>final conc. in the 5 μl assay volume is 0.75 μM) in assay buffer and the resulting mixture was incubated for a reaction time of 25 min at 22° C. The concentration of CDK2/CycE was adjusted depending of the activity of the enzyme lot and was chosen appropriate to have the assay in the linear range, typical concentrations were in the range of 130 ng/ml. The reaction was stopped by the addition of 5 μl of a solution of TR-FRET detection reagents (0.2 μM streptavidine-XL665 [Cisbio Bioassays, Codolet, France] and 1 nM anti-RB(pSer807/pSer811)-antibody from BD Pharmingen [#558389] and 1.2 nM LANCE EU-W1024 labeled anti-mouse IgG antibody [Perkin-Elmer, product no. AD0077, as an alternative a Terbium-cryptate-labeled anti-mouse IgG antibody from Cisbio Bioassays can be used]) in an aqueous EDTA-solution (100 mM EDTA, 0.2% (w/v) bovine serum albumin in 100 mM HEPES/NaOH pH 7.0).
The resulting mixture was incubated 1 h at 22° C. to allow the formation of complex between the phosphorylated biotinylated peptide and the detection reagents. Subsequently the amount of phosphorylated substrate was evaluated by measurement of the resonance energy transfer from the Eu-chelate to the streptavidine-XL. Therefore, the fluorescence emissions at 620 nm and 665 nm after excitation at 350 nm was measured in a TR-FRET reader, e.g. a Rubystar (BMG Labtechnologies, Offenburg, Germany) or a Viewlux (Perkin-Elmer). The ratio of the emissions at 665 nm and at […] was taken as the measure for the amount of phosphorylated substrate. The data were normalised (enzyme reaction without inhibitor=0% inhibition, all other assay components but no enzyme=100% inhibition).
A general note: Time-resolved FRET reads energy transfer from a long-lived donor to a nearby acceptor.
Consider `CC(=O)N(C)CCOc1ccc(NC(=O)c2c(C)nsc2Nc2nc3c(C(F)(F)F)cccc3s2)cn1` [Example 112, N-(6-{2-[Acetyl(methyl)amino]-ethoxy}pyridin-3-yl)-3-methyl-5-{[4-(trifluoromethyl)-1,3-benzothiazol-2-yl]amino}-1,2-thiazole-4-carboxamide], for which the IC50 is at least 20 µM.
Turning to `Cc1nsc(Nc2cnc3ccccc3n2)c1C(=O)Nc1cccc(C(=O)N2CCCC2)c1` [Example 113, 3-Methyl-N-[3-(pyrrolidin-1-ylcarbonyl)phenyl]-5-(quinoxalin-2-ylamino)-1,2-thiazole-4-carboxamide], the IC50 is at least 20 µM.
On to `Cc1nsc(Nc2cc(C#N)ccn2)c1C(=O)Nc1cccc(C(=O)N2CCCC2)c1` [Example 114, 5-[(4-Cyanopyridin-2-yl)amino]-3-methyl-N-[3-(pyrrolidin-1-ylcarbonyl)phenyl]-1,2-thiazole-4-carboxamide], for which the IC50 was at least 20 µM.
To `Cc1nsc(Nc2cnc3ccccc3n2)c1C(=O)Nc1ccc(S(C)(=O)=O)cc1` [Example 115, 3-Methyl-N-[4-(methylsulfonyl)phenyl]-5-(quinoxalin-2-ylamino)-1,2-thiazole-4-carboxamide] belongs at least 20 µM.
In the case of `CCNS(=O)(=O)c1ccc(NC(=O)c2c(C)nsc2Nc2cnc3ccccc3n2)cc1` [Example 116, N-[4-(Ethylsulfamoyl)phenyl]-3-methyl-5-(quinoxalin-2-ylamino)-1,2-thiazole-4-carboxamide], the IC50 was at least 20 µM.
As to `Cc1nsc(Nc2cnc3ccccc3n2)c1C(=O)Nc1ccc(Oc2cccc(C(F)(F)F)c2)nc1` [Example 117, 3-Methyl-5-(quinoxalin-2-ylamino)-N-{6-[3-(trifluoromethyl)phenoxy]pyridin-3-yl}-1,2-thiazole-4-carboxamide], the IC50 was at least 20 µM.
Regarding `Cc1nsc(Nc2ccc(C#N)cn2)c1C(=O)Nc1ccc(Oc2cccc(C(F)(F)F)c2)nc1` [Example 118, 5-[(5-Cyanopyridin-2-yl)amino]-3-methyl-N-{6-[3-(trifluoromethyl)phenoxy]pyridin-3-yl}-1,2-thiazole-4-carboxamide], the IC50 was at least 20 µM.
On to `Cc1nsc(Nc2cc(C#N)ccn2)c1C(=O)Nc1ccc(Oc2cccnc2)nc1` [Example 119, 5-[(4-Cyanopyridin-2-yl)amino]-3-methyl-N-[6-(pyridin-3-yloxy)pyridin-3-yl]-1,2-thiazole-4-carboxamide], for which the IC50 was at least 20 µM.
To `Cc1nsc(Nc2cnc(C(F)(F)F)cn2)c1C(=O)Nc1ccc(OCC2CCN(CC(F)F)C2)nc1` (stereo not shown) [Example 122, N-(6-{[1-(2,2-difluoroethyl)pyrrolidin-3-yl]methoxy}pyridin-3-yl)-3-methyl-5-{[5-(trifluoromethyl)pyrazin-2-yl]amino}-1,2-thiazole-4-carboxamide] belongs at least 20 µM; to `Cc1nsc(Nc2cnc(C(F)(F)F)cn2)c1C(=O)Nc1ccc(OCC2CCN(CC(F)(F)F)C2)nc1` (stereo not shown) [Example 123, 3-Methyl-N-(6-{[1-(2,2,2-trifluoroethyl)pyrrolidin-3-yl]methoxy}pyridin-3-yl)-5-{[5-(trifluoromethyl)pyrazin-2-yl]amino}-1,2-thiazole-4-carboxamide], at least 20 µM.
To `Cc1nsc(Nc2cnc(C(F)(F)F)cn2)c1C(=O)Nc1ccc(OCC2CCN(CCC(F)(F)F)C2)nc1` (stereo not shown) [Example 124, 3-methyl-5-{[5-(trifluoromethyl)pyrazin-2-yl]amino}-N-(6-{[1-(3,3,3-trifluoropropyl)pyrrolidin-3-yl]methoxy}pyridin-3-yl)-1,2-thiazole-4-carboxamide] belongs at least 20 µM; to `Cc1nsc(Nc2cnc(C(F)(F)F)cn2)c1C(=O)Nc1ccc(OC[C@@H]2CCN(CC(F)F)C2)nc1` [Example 127, N-(6-{[(3R)-1-(2,2-difluoroethyl)pyrrolidin-3-yl]methoxy}pyridin-3-yl)-3-methyl-5-{[5-(trifluoromethyl)pyrazin-2-yl]amino}-1,2-thiazole-4-carboxamide], above 20 µM.
The value for `Cc1nsc(Nc2cnc(C(F)(F)F)cn2)c1C(=O)Nc1ccc(OC[C@@H]2CCN(CC(F)(F)F)C2)nc1` [Example 128, 3-Methyl-N-(6-{[(3R)-1-(2,2,2-trifluoroethyl)pyrrolidin-3-yl]methoxy}pyridin-3-yl)-5-{[5-(trifluoromethyl)pyrazin-2-yl]amino}-1,2-thiazole-4-carboxamide] was above 20 µM.
With `Cc1nsc(Nc2cnc(C(F)(F)F)cn2)c1C(=O)Nc1ccc(OC[C@@H]2CCN(CCC(F)(F)F)C2)nc1` [Example 129, 3-Methyl-5-{[5-(trifluoromethyl)pyrazin-2-yl]amino}-N-(6-{[(3R)-1-(3,3,3-trifluoropropyl)pyrrolidin-3-yl]methoxy}pyridin-3-yl)-1,2-thiazole-4-carboxamide], the IC50 was above 20 µM.
The value for `Cc1nsc(Nc2cnc(C(F)(F)F)cn2)c1C(=O)Nc1ccc(OC[C@H]2CCN(CC(F)F)C2)nc1` [Example 132, N-(6-{[(3S)-1-(2,2-difluoroethyl)pyrrolidin-3-yl]methoxy}pyridin-3-yl)-3-methyl-5-{[5-(trifluoromethyl)pyrazin-2-yl]amino}-1,2-thiazole-4-carboxamide] was above 20 µM.
To `Cc1nsc(Nc2cnc(C(F)(F)F)cn2)c1C(=O)Nc1ccc(OC[C@H]2CCN(CCC(F)(F)F)C2)nc1` [Example 134, 3-Methyl-5-{[5-(trifluoromethyl)pyrazin-2-yl]amino}-N-(6-{[(3S)-1-(3,3,3-trifluoropropyl)pyrrolidin-3-yl]methoxy}pyridin-3-yl)-1,2-thiazole-4-carboxamide] belongs above 20 µM.
The value for `Cc1nsc(Nc2cnc(C(F)(F)F)cn2)c1C(=O)Nc1ccc(O[C@@H]2CCN(CC(F)F)C[C@@H]2F)nc1` [Example 137, N-(6-{[(3S,4R)-1-(2,2-difluoroethyl)-3-fluoropiperidin-4-yl]oxy}pyridin-3-yl)-3-methyl-5-{[5-(trifluoromethyl)pyrazin-2-yl]amino}-1,2-thiazole-4-carboxamide] was above 20 µM.
As to `Cc1nsc(Nc2cnc(C(F)(F)F)cn2)c1C(=O)Nc1ccc(O[C@@H]2CCN(CC(F)(F)F)C[C@@H]2F)nc1` [Example 138, N-(6-{[(3S,4R)-3-fluoro-1-(2,2,2-trifluoroethyl)piperidin-4-yl]oxy}pyridin-3-yl)-3-methyl-5-{[5-(trifluoromethyl)pyrazin-2-yl]amino}-1,2-thiazole-4-carboxamide], the IC50 is above 20 µM.
For `Cc1nsc(Nc2cnc(C(F)(F)F)cn2)c1C(=O)Nc1ccc(O[C@@H]2CCN(CCC(F)(F)F)C[C@@H]2F)nc1` [Example 139, N-(6-{[(3S,4R)-3-fluoro-1-(3,3,3-trifluoropropyl)piperidin-4-yl]oxy}pyridin-3-yl)-3-methyl-5-{[5-(trifluoromethyl)pyrazin-2-yl]amino}-1,2-thiazole-4-carboxamide], the IC50 was above 20 µM.
To `CCCN1CC[C@@H](Oc2ccc(NC(=O)c3c(C)nsc3Nc3cnc(C(F)(F)F)cn3)cn2)[C@@H](F)C1` [Example 140, N-(6-{[(3S,4R)-3-fluoro-1-propylpiperidin-4-yl]oxy}pyridin-3-yl)-3-methyl-5-{[5-(trifluoromethyl)pyrazin-2-yl]amino}-1,2-thiazole-4-carboxamide] belongs above 20 µM.
The value for `CCCCN1CC[C@@H](Oc2ccc(NC(=O)c3c(C)nsc3Nc3cnc(C(F)(F)F)cn3)cn2)[C@@H](F)C1` [Example 141, N-(6-{[(3S,4R)-1-butyl-3-fluoropiperidin-4-yl]oxy}pyridin-3-yl)-3-methyl-5-{[5-(trifluoromethyl)pyrazin-2-yl]amino}-1,2-thiazole-4-carboxamide] was above 20 µM.
The value for `Cc1nsc(Nc2cnc(C(F)(F)F)cn2)c1C(=O)Nc1ccc(O[C@H]2CCN(CC(F)F)C[C@H]2F)nc1` [Example 144, N-(6-{[(3R,4S)-1-(2,2-difluoroethyl)-3-fluoropiperidin-4-yl]oxy}pyridin-3-yl)-3-methyl-5-{[5-(trifluoromethyl)pyrazin-2-yl]amino}-1,2-thiazole-4-carboxamide] was above 20 µM.

These data come from patent publication US20170334899A1, “AMINO-SUBSTITUTED ISOTHIAZOLES” (Bayer Pharma Aktiengesellschaft, priority 2014, published 2017).
